The text below walks through data of patent publication US12540129B2, “KIF18A inhibitors” (AMGEN INC., priority 2019, dated 2026).

The target in the assay is T1, Recombinant human KIF18A (1-467 His-tagged) protein (Homo sapiens, UniProt Q8NI77).
T1 construct: Recombinant human KIF18A (1-467 His-tagged) protein; His; made in house
T1 sequence (Q8NI77 1-467): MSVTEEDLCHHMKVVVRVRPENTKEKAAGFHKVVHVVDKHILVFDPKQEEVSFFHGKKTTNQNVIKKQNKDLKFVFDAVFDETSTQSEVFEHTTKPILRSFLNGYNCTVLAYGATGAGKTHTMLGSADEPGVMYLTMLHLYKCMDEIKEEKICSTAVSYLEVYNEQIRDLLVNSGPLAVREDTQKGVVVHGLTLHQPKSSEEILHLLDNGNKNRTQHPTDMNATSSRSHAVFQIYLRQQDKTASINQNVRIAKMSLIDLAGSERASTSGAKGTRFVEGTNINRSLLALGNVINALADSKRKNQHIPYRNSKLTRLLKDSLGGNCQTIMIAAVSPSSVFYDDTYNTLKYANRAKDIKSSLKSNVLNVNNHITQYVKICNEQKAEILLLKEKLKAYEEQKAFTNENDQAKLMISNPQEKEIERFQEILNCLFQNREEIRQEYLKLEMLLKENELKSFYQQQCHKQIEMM
T1 sequence (P02550 whole entry partner): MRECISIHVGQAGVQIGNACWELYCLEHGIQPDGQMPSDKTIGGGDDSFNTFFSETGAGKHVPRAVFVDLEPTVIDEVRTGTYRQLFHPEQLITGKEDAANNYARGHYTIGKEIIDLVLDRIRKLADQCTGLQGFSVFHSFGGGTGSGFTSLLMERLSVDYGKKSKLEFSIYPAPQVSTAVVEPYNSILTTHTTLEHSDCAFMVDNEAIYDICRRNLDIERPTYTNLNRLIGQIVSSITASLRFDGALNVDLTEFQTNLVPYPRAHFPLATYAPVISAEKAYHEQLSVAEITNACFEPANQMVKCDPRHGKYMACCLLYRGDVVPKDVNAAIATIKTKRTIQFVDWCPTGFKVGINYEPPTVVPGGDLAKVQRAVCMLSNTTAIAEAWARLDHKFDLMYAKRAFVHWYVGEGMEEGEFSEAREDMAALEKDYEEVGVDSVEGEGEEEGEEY
T1 sequence (P02554 whole entry partner): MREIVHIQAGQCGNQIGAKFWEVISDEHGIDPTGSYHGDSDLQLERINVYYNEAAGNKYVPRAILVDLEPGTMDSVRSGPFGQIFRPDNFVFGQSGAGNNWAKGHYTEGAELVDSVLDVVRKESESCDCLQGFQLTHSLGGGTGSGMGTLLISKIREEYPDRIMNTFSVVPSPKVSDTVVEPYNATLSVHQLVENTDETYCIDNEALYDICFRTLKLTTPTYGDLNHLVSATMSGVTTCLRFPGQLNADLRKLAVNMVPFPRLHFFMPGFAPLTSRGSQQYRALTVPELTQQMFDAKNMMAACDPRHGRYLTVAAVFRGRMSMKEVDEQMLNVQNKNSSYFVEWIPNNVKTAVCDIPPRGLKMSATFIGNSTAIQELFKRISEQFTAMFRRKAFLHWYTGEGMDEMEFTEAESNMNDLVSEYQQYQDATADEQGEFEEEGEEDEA
Kind of assay: KIF18A Enzyme Assay: microtubule-stimulated ATPase activity (ADP-Glo). The note with it: 30 nM KIF18A, 75 μM ATP. The assay is classed as biochemical. The text has this: KIF18A Enzyme Assay: Microtubule-stimulated ATPase activity assay is used to measure KIF18A enzyme activity after treatment with compound. Compounds were 2-fold serially diluted in DMSO (Sigma Inc) over 22-point concentration range. Recombinant human KIF18A (1-467 His-tagged) protein was expressed using a baculovirus system and purified by affinity chromatography by Amgen Inc. Concentrations of KIF18A protein, microtubules (MT), and ATP in the reaction were optimized for standardized homogenous enzyme assay using ADP-Glorm Kinase/ATPase Assay Kit (Promega Inc). The assay measures ADP formed from the ATPase reaction. […] Read luminescence using EnVision microplate reader with ultra-luminescence module (Perkin Elmer Inc). Concentration-response curve-fitting and IC50 determination was performed using Genedata Screener Software (Standard 15.0.1, Genedata Inc) with a four-parameter logistic regression fit model.
Table A provides data for compounds exemplified in the present application and priority document thereof, as representative compounds of the present invention, as follows: chemical name (as named by either ACD software or ChemDraw (Professional 15.0)) and biological data (IC50 in μM). Ex. # refers to Example No.
(ADP-Glo turns the ADP formed in a reaction into a luminescent signal.)
In general, IC50 refers to the point on the concentration scale where inhibition reaches its midpoint. For the compound `O=C(Nc1cccc(S(=O)(=O)N2CCC(F)(F)C2)c1)c1cccnc1N1CCC2(CC1)CC2` [Example 101-6, N-(3-((3,3-difluoropyrrolidin-1-yl)sulfonyl)phenyl)-2-(6-azaspiro[2.5]octan-6-yl)nicotinamide], the IC50 is 581 nM.
To `CC1(NS(=O)(=O)c2cccc(NC(=O)c3cccnc3N3CCC4(CC3)CC4)c2)CC1` [Example 101-7, N-(3-(N-(1-methylcyclopropyl)sulfamoyl)phenyl)-2-(6-azaspiro[2.5]octan-6-yl)nicotinamide] belongs 320 nM; to `CC(C)(CF)NS(=O)(=O)c1cccc(NC(=O)c2cccnc2N2CCC3(CC2)CC3)c1` [Example 101-8, N-(3-(N-(1-fluoro-2-methylpropan-2-yl)sulfamoyl)phenyl)-2-(6-azaspiro[2.5]octan-6-yl)nicotinamide], 279 nM; to `O=C(Nc1cccc(S(=O)(=O)NC2CC(F)(F)C2)c1)c1cccnc1N1CCC2(CC1)CC2` [Example 101-9, N-(3-(N-(3,3-difluorocyclobutyl)sulfamoyl)phenyl)-2-(6-azaspiro[2.5]octan-6-yl)nicotinamide], 474 nM.
For the compound `O=C(Nc1cccc(S(=O)(=O)Nc2ccc(F)cc2)c1)c1cccnc1N1CCC2(CC1)CC2` [Example 101-10, N-(3-(N-(4-fluorophenyl)sulfamoyl)phenyl)-2-(6-azaspiro[2.5]octan-6-yl)nicotinamide], the IC50 came to 393 nM.
To `CC1(C)CCN(c2ccc(C(=O)Nc3cccc(S(=O)(=O)NC(C)(C)C)c3)c(N3CCC4(CC3)CC4)n2)C1` [Example 102-1, N-(3-(N-(tert-butyl)sulfamoyl)phenyl)-6-(3,3-dimethylpyrrolidin-1-yl)-2-(6-azaspiro[2.5]octan-6-yl)nicotinamide] belongs 196 nM.
To `CC(C)(C)NS(=O)(=O)c1cccc(NC(=O)c2ccc(N3CCC(F)(F)C3)nc2N2CCC3(CC2)CC3)c1` [Example 102-2, N-(3-(N-(tert-butyl)sulfamoyl)phenyl)-6-(3,3-difluoropyrrolidin-1-yl)-2-(6-azaspiro[2.5]octan-6-yl)nicotinamide] belongs 302 nM; to `CC(C)(C)NS(=O)(=O)c1cccc(NC(=O)c2ccc(N3CCCC3(C)C)nc2N2CCC3(CC2)CC3)c1` [Example 102-3, N-(3-(N-(tert-butyl)sulfamoyl)phenyl)-6-(2,2-dimethylpyrrolidin-1-yl)-2-(6-azaspiro[2.5]octan-6-yl)nicotinamide], 342 nM; to `CC(C)(C)NS(=O)(=O)c1cccc(NC(=O)c2ccc(N3CC[C@H](O)C3)nc2N2CCC3(CC2)CC3)c1` [Example 102-4, (S)-N-(3-(N-(tert-butyl)sulfamoyl)phenyl)-6-(3-hydroxypyrrolidin-1-yl)-2-(6-azaspiro[2.5]octan-6-yl)nicotinamide], 234 nM.
To `CC(C)(C)NS(=O)(=O)c1cccc(NC(=O)c2ccc(N3C[C@H]4C[C@H]4C3)nc2N2CCC3(CC2)CC3)c1` [Example 102-5] belongs 191 nM; to `CC(C)(C)NS(=O)(=O)c1cccc(NC(=O)c2ccc(N3CC[C@@H]4C[C@@H]43)nc2N2CCC3(CC2)CC3)c1` [Example 102-6, 6-((1S,5R)-2-azabicyclo[3.1.0]hexan-2-yl)-N-(3-(N-(tert-butyl)sulfamoyl)phenyl)-2-(6-azaspiro[2.5]octan-6-yl)nicotinamide], 200 nM.
As to `CC(C)(C)NS(=O)(=O)c1cccc(NC(=O)c2ccc(N3CCOCC3)nc2N2CCC3(CC2)CC3)c1` [Example 102-7, N-(3-(N-(tert-butyl)sulfamoyl)phenyl)-6-morpholino-2-(6-azaspiro[2.5]octan-6-yl)nicotinamide], the IC50 was determined as 238 nM.
To `CC(C)(C)NS(=O)(=O)c1cccc(NC(=O)c2ccc(N3C[C@H]4C[C@@H]3CO4)nc2N2CCC3(CC2)CC3)c1` [Example 102-8, 6-((1R,4R)-2-oxa-5-azabicyclo[2.2.1]heptan-5-yl)-N-(3-(N-(tert-butyl)sulfamoyl)phenyl)-2-(6-azaspiro[2.5]octan-6-yl)nicotinamide] belongs 104 nM.
To `CC(C)(C)NS(=O)(=O)c1cccc(NC(=O)c2ccc(N3CC[C@H]4CC[C@@H]3O4)nc2N2CCC3(CC2)CC3)c1` [Example 102-9, 6-((1S,5R)-8-oxa-2-azabicyclo[3.2.1]octan-2-yl)-N-(3-(N-(tert-butyl)sulfamoyl)phenyl)-2-(6-azaspiro[2.5]octan-6-yl)nicotinamide] belongs 127 nM; to `CC(C)(C)NS(=O)(=O)c1cccc(NC(=O)c2ccc(N3CCC3)nc2N2CCC3(CC2)CC3)c1` [Example 102-10, 6-(azetidin-1-yl)-N-(3-(N-(tert-butyl)sulfamoyl)phenyl)-2-(6-azaspiro[2.5]octan-6-yl)nicotinamide], 118 nM; to `CC(C)(C)NS(=O)(=O)c1cccc(NC(=O)c2ccc(N3CC(C#N)C3)nc2N2CCC3(CC2)CC3)c1` [Example 102-11, N-(3-(N-(tert-butyl)sulfamoyl)phenyl)-6-(3-cyanoazetidin-1-yl)-2-(6-azaspiro[2.5]octan-6-yl)nicotinamide], 159 nM.
Consider `COC1CN(c2ccc(C(=O)Nc3cccc(S(=O)(=O)NC(C)(C)C)c3)c(N3CCC4(CC3)CC4)n2)C1` [Example 102-12, N-(3-(N-(tert-butyl)sulfamoyl)phenyl)-6-(3-methoxyazetidin-1-yl)-2-(6-azaspiro[2.5]octan-6-yl)nicotinamide], for which the IC50 worked out at 591 nM.
Turning to `CC1(O)CN(c2ccc(C(=O)Nc3cccc(S(=O)(=O)NC(C)(C)C)c3)c(N3CCC4(CC3)CC4)n2)C1` [Example 102-13, N-(3-(N-(tert-butyl)sulfamoyl)phenyl)-6-(3-hydroxy-3-methylazetidin-1-yl)-2-(6-azaspiro[2.5]octan-6-yl)nicotinamide], the IC50 worked out at 196 nM.
To `CC(C)(C)NS(=O)(=O)c1cccc(NC(=O)c2ccc(N3CC(O)(C(F)(F)F)C3)nc2N2CCC3(CC2)CC3)c1` [Example 102-14, N-(3-(N-(tert-butyl)sulfamoyl)phenyl)-6-(3-hydroxy-3-(trifluoromethyl)azetidin-1-yl)-2-(6-azaspiro[2.5]octan-6-yl)nicotinamide] belongs 280 nM.
Take `CC(C)(C)NS(=O)(=O)c1cccc(NC(=O)c2ccc(N3CC(S(C)(=O)=O)C3)nc2N2CCC3(CC2)CC3)c1` [Example 102-15, N-(3-(N-(tert-butyl)sulfamoyl)phenyl)-6-(3-(methylsulfonyl)azetidin-1-yl)-2-(6-azaspiro[2.5]octan-6-yl)nicotinamide]: the IC50 came to 182 nM.
To `CC(C)(C)NS(=O)(=O)c1cccc(NC(=O)c2ccc(NC3CCC3)nc2N2CCC3(CC2)CC3)c1` [Example 102-16, N-(3-(N-(tert-butyl)sulfamoyl)phenyl)-6-(cyclobutylamino)-2-(6-azaspiro[2.5]octan-6-yl)nicotinamide] belongs 221 nM; to `CC(C)(C)NS(=O)(=O)c1cccc(NC(=O)c2ccc(NC3CC(F)(F)C3)nc2N2CCC3(CC2)CC3)c1` [Example 102-17, N-(3-(N-(tert-butyl)sulfamoyl)phenyl)-6-((3,3-difluorocyclobutyl)amino)-2-(6-azaspiro[2.5]octan-6-yl)nicotinamide], 294 nM; to `CC(C)(C)NS(=O)(=O)c1cccc(NC(=O)c2ccc(N[C@@H]3CCC[C@H]3O)nc2N2CCC3(CC2)CC3)c1` [Example 102-18, N-(3-(N-(tert-butyl)sulfamoyl)phenyl)-6-(((1R,2R)-2-hydroxycyclopentyl)amino)-2-(6-azaspiro[2.5]octan-6-yl)nicotinamide], 107 nM.
Regarding `CC(C)(C)NS(=O)(=O)c1cccc(NC(=O)c2ccc(N[C@H]3CCC[C@H]3O)nc2N2CCC3(CC2)CC3)c1` [Example 102-19, N-(3-(N-(tert-butyl)sulfamoyl)phenyl)-6-(((1S,2R)-2-hydroxycyclopentyl)amino)-2-(6-azaspiro[2.5]octan-6-yl)nicotinamide], the IC50 stood at 160 nM.
To `CC(C)(C)NS(=O)(=O)c1cccc(NC(=O)c2ccc(N[C@H]3COC[C@@H]3O)nc2N2CCC3(CC2)CC3)c1` [Example 102-20, N-(3-(N-(tert-butyl)sulfamoyl)phenyl)-6-(((3S,4R)-4-hydroxytetrahydrofuran-3-yl)amino)-2-(6-azaspiro[2.5]octan-6-yl)nicotinamide] belongs 103 nM; to `CC(C)(C)NS(=O)(=O)c1cccc(NC(=O)c2ccc(N[C@@H]3CCOC3)nc2N2CCC3(CC2)CC3)c1` [Example 102-21, (R)-N-(3-(N-(tert-butyl)sulfamoyl)phenyl)-2-(6-azaspiro[2.5]octan-6-yl)-6-((tetrahydrofuran-3-yl)amino)nicotinamide], 134 nM.
To `CC(C)(C)NS(=O)(=O)c1cccc(NC(=O)c2ccc(N[C@@H]3CC[C@H](O)C3)nc2N2CCC3(CC2)CC3)c1` [Example 102-22, N-(3-(N-(tert-butyl)sulfamoyl)phenyl)-6-(((1R,3S)-3-hydroxycyclopentyl)amino)-2-(6-azaspiro[2.5]octan-6-yl)nicotinamide] belongs 116 nM; to `CC(C)(C)NS(=O)(=O)c1cccc(NC(=O)c2ccc(N[C@H]3CC[C@H](O)C3)nc2N2CCC3(CC2)CC3)c1` [Example 102-23, N-(3-(N-(tert-butyl)sulfamoyl)phenyl)-6-(((1S,3S)-3-hydroxycyclopentyl)amino)-2-(6-azaspiro[2.5]octan-6-yl)nicotinamide], 185 nM.
